The test system of the data set is rodent lifetime carcinogenesis bioassay, tumor incidence TD50. The data set can be described thus: carcinogenic potency in animals, long-term in vivo studies, CPDB compilation (AID 1745844).

Molecules are shown by their SMILES. Activity calls are given as the source filed them. No rule for the calls is given here.

For orientation: TD50 means the 50% point of the dose-response relation for the toxic effect studied.

Turning to `C=CC(N)=O`, the TD50 was 38.8 mg/kg/day (rat, strain Fischer 344, females, in drinking water, site: brain, lesion: astrocytoma, dosed 104 weeks, study length 104 weeks); 71.8 mg/kg/day (rat, strain Fischer 344, females, in drinking water, site: brain, lesion: astrocytoma, dosed 107 weeks, study length 107 weeks); 259 mg/kg/day (rat, strain Fischer 344, females, in drinking water, site: brain, lesion: oligodendroglioma, dosed 104 weeks, study length 104 weeks); 19.5 mg/kg/day (rat, strain Fischer 344, females, in drinking water, site: central nervous system, lesion: astrocytoma, dosed 104 weeks, study length 104 weeks); 17.3 mg/kg/day (rat, strain Fischer 344, females, in drinking water, site: central nervous system, lesion: glial tumors (oligodendroglioma and astrocytoma), dosed 104 weeks, study length 104 weeks); 57.2 mg/kg/day (rat, strain Fischer 344, females, in drinking water, site: central nervous system, lesion: glial tumors (oligodendroglioma and astrocytoma), dosed 107 weeks, study length 107 weeks). In addition, the TD50 (rat, strain Fischer 344, females, in drinking water, site: clitoral gland, lesion: adenoma, dosed 104 weeks, study length 104 weeks) is 19 mg/kg/day; the TD50 (rat, strain Fischer 344, females, in drinking water, site: mammary gland, lesion: adenocarcinoma, dosed 104 weeks, study length 104 weeks) was 17.6 mg/kg/day; the TD50 (rat, strain Fischer 344, females, in drinking water, site: mammary gland, lesion: adenocarcinoma, dosed 107 weeks, study length 107 weeks) turned out to be 100 mg/kg/day; the TD50 (rat, strain Fischer 344, females, in drinking water, site: mammary gland, lesion: benign tumor, dosed 104 weeks, study length 104 weeks) is 4.21 mg/kg/day; the TD50 (rat, strain Fischer 344, females, in drinking water, site: mammary gland, lesion: fibroadenoma, dosed 104 weeks, study length 104 weeks) worked out at 8.73 mg/kg/day; the TD50 (rat, strain Fischer 344, females, in drinking water, site: mammary gland, lesion: fibroadenoma, dosed 107 weeks, study length 107 weeks) is 9.33 mg/kg/day. Further, the TD50 reads like this: (rat, strain Fischer 344, females, in drinking water, site: mammary gland, lesion: several types, types named in the paper, dosed 107 weeks, study length 107 weeks) 8.18 mg/kg/day; (rat, strain Fischer 344, females, in drinking water, site: mammary tissue, wider than the gland, lesion: fibroma, dosed 104 weeks, study length 104 weeks) 20.9 mg/kg/day; (rat, strain Fischer 344, females, in drinking water, site: oral cavity, lesion: squamous-cell papilloma, dosed 104 weeks, study length 104 weeks) 16.2 mg/kg/day; (rat, strain Fischer 344, females, in drinking water, site: spinal cord, lesion: astrocytoma, dosed 104 weeks, study length 104 weeks) 40.3 mg/kg/day; (rat, strain Fischer 344, females, in drinking water, site: spinal cord, lesion: astrocytoma, dosed 107 weeks, study length 107 weeks) 210 mg/kg/day; (rat, strain Fischer 344, females, in drinking water, site: thyroid follicle, lesion: several types, types named in the paper, dosed 104 weeks, study length 104 weeks) 19.1 mg/kg/day. Besides, the TD50 was 8.92 mg/kg/day (rat, strain Fischer 344, females, in drinking water, site: thyroid follicle, lesion: several types, types named in the paper, dosed 107 weeks, study length 107 weeks); 39.5 mg/kg/day (rat, strain Fischer 344, females, in drinking water, site: thyroid gland, lesion: follicular adenocarcinoma, dosed 104 weeks, study length 104 weeks); 42.8 mg/kg/day (rat, strain Fischer 344, females, in drinking water, site: thyroid gland, lesion: follicular adenocarcinoma, dosed 107 weeks, study length 107 weeks); 11.7 mg/kg/day (rat, strain Fischer 344, females, in drinking water, site: thyroid gland, lesion: follicular-cell adenoma, dosed 107 weeks, study length 107 weeks); 26.5 mg/kg/day (rat, strain Fischer 344, females, in drinking water, site: uterus, lesion: adenocarcinoma, dosed 104 weeks, study length 104 weeks); 18.1 mg/kg/day (rat, strain Fischer 344, males, in drinking water, site: adrenal gland, lesion: pheochromocytoma, benign, dosed 104 weeks, study length 104 weeks). Further, the TD50 was 82.6 mg/kg/day (rat, strain Fischer 344, males, in drinking water, site: brain, lesion: astrocytoma, dosed 104 weeks, study length 104 weeks); 76.8 mg/kg/day (rat, strain Fischer 344, males, in drinking water, site: brain, lesion: astrocytoma, dosed 107 weeks, study length 107 weeks); 339 mg/kg/day (rat, strain Fischer 344, males, in drinking water, site: brain, lesion: oligodendroglioma, dosed 104 weeks, study length 104 weeks); 23.5 mg/kg/day (rat, strain Fischer 344, males, in drinking water, site: central nervous system, lesion: astrocytoma, dosed 104 weeks, study length 104 weeks); 24.8 mg/kg/day (rat, strain Fischer 344, males, in drinking water, site: central nervous system, lesion: glial tumors (oligodendroglioma and astrocytoma), dosed 104 weeks, study length 104 weeks); 48.9 mg/kg/day (rat, strain Fischer 344, males, in drinking water, site: central nervous system, lesion: glial tumors (oligodendroglioma and astrocytoma), dosed 107 weeks, study length 107 weeks). In addition, the TD50 (rat, strain Fischer 344, males, in drinking water, site: spinal cord, lesion: astrocytoma, dosed 104 weeks, study length 104 weeks) was 39.7 mg/kg/day; the TD50 (rat, strain Fischer 344, males, in drinking water, site: spinal cord, lesion: astrocytoma, dosed 107 weeks, study length 107 weeks) amounted to 82.5 mg/kg/day; the TD50 (rat, strain Fischer 344, males, in drinking water, site: spleen, lesion: leukemia, dosed 104 weeks, study length 104 weeks) turned out to be 45.8 mg/kg/day; the TD50 (rat, strain Fischer 344, males, in drinking water, site: thyroid follicle, lesion: several types, types named in the paper, dosed 107 weeks, study length 107 weeks) is 7.35 mg/kg/day; the TD50 (rat, strain Fischer 344, males, in drinking water, site: thyroid gland, lesion: follicular adenocarcinoma, dosed 107 weeks, study length 107 weeks) worked out at 77.2 mg/kg/day; the TD50 (rat, strain Fischer 344, males, in drinking water, site: thyroid gland, lesion: follicular-cell adenoma, dosed 104 weeks, study length 104 weeks) is 13.5 mg/kg/day. The TD50 is, setting by setting: (rat, strain Fischer 344, males, in drinking water, site: thyroid gland, lesion: follicular-cell adenoma, dosed 107 weeks, study length 107 weeks) 7.49 mg/kg/day; (rat, strain Fischer 344, males, in drinking water, site: tunica vaginalis, lesion: mesothelioma, benign, dosed 107 weeks, study length 107 weeks) 9.45 mg/kg/day; (rat, strain Fischer 344, males, in drinking water, site: tunica vaginalis, lesion: mesothelioma, malignant, dosed 104 weeks, study length 104 weeks) 1.75 mg/kg/day.
For the compound `O=NC(=O)CCNCCO`, the TD50 was 2.68 mg/kg/day (hamster, strain Syrian Golden, females, by gavage, site: liver, lesion: cholangioadenoma/carcinoma, dosed 50 weeks, study length 65 weeks); 5.58 mg/kg/day (hamster, strain Syrian Golden, females, by gavage, site: liver, lesion: cholangiocarcinoma, dosed 50 weeks, study length 65 weeks); 5.58 mg/kg/day (hamster, strain Syrian Golden, females, by gavage, site: liver, lesion: hepatocellular adenoma, dosed 50 weeks, study length 65 weeks); 3.72 mg/kg/day (hamster, strain Syrian Golden, females, by gavage, site: liver, lesion: hepatocellular carcinoma/adenoma, dosed 50 weeks, study length 65 weeks); 0.997 mg/kg/day (hamster, strain Syrian Golden, females, by gavage, site: liver, lesion: several types, types named in the paper, dosed 50 weeks, study length 65 weeks); 31.3 mg/kg/day (hamster, strain Syrian Golden, females, by gavage, site: lung, lesion: adenoma, dosed 50 weeks, study length 65 weeks). Further, the TD50 is 3.72 mg/kg/day (hamster, strain Syrian Golden, females, by gavage, site: pancreatic duct, lesion: carcinoma, dosed 50 weeks, study length 65 weeks); 2.31 mg/kg/day (hamster, strain Syrian Golden, females, by gavage, site: pancreatic duct, lesion: several types, types named in the paper, dosed 50 weeks, study length 65 weeks); 2.7 mg/kg/day (rat, strain Fischer 344, females, in drinking water, site: liver, lesion: hepatocellular carcinoma, dosed 50 weeks, study length 120 weeks); 2.7 mg/kg/day (rat, strain Fischer 344, females, in drinking water, site: liver, lesion: neoplastic nodule, dosed 50 weeks, study length 120 weeks); 1.8 mg/kg/day (rat, strain Fischer 344, females, in drinking water, site: liver, lesion: several types, types named in the paper, dosed 50 weeks, study length 120 weeks).
As for `CCn1cc(C(=O)O)c(=O)c2cc3c(cc21)OCO3`, the TD50 (mouse, strain ICR, females, in feed, site: liver, lesion: hepatocellular adenoma, dosed 78 weeks, study length 78 weeks) worked out at 572 mg/kg/day; the TD50 (mouse, strain ICR, females, in feed, site: lung, lesion: adenoma, dosed 78 weeks, study length 78 weeks) was 55.1 mg/kg/day; the TD50 (rat, strain Wistar, females, in feed, site: any site (literature study), lesion: benign tumor, dosed 104 weeks, study length 104 weeks) was 589 mg/kg/day; the TD50 (rat, strain Wistar, females, in feed, site: any site (literature study), lesion: malignant tumor, dosed 104 weeks, study length 104 weeks) was 1040 mg/kg/day; the TD50 (rat, strain Wistar, females, in feed, site: any site (literature study), lesion: several types, types named in the paper, dosed 104 weeks, study length 104 weeks) was 68.5 mg/kg/day; the TD50 (rat, strain Wistar, females, in feed, site: liver, lesion: hepatocellular carcinoma, dosed 104 weeks, study length 104 weeks) stood at 2440 mg/kg/day. Further, the TD50 (rat, strain Wistar, males, in feed, site: any site (literature study), lesion: malignant tumor, dosed 104 weeks, study length 104 weeks) was 1790 mg/kg/day and the TD50 (rat, strain Wistar, males, in feed, site: testis, lesion: Leydig-cell adenoma, dosed 104 weeks, study length 104 weeks) is 167 mg/kg/day.
In the case of `Cc1ccc2c(c1N)C(=O)c1ccccc1C2=O`, the TD50 runs as follows: (mouse, strain B6C3F1, females, in feed, site: liver, lesion: hepatocellular adenoma + hepatocellular carcinoma + neoplastic nodule, dosed 70 weeks, study length 97 weeks) 174 mg/kg/day; (mouse, strain B6C3F1, females, in feed, site: liver, lesion: hepatocellular carcinoma + neoplastic nodule, dosed 70 weeks, study length 97 weeks) 174 mg/kg/day; (rat, strain Fischer 344, females, in feed, site: liver, lesion: hepatocellular adenoma + hepatocellular carcinoma + neoplastic nodule, dosed 78 weeks, study length 104 weeks) 115 mg/kg/day; (rat, strain Fischer 344, females, in feed, site: liver, lesion: hepatocellular carcinoma + neoplastic nodule, dosed 78 weeks, study length 104 weeks) 115 mg/kg/day; (rat, strain Fischer 344, females, in feed, site: liver, lesion: hepatocellular carcinoma, dosed 78 weeks, study length 104 weeks) 182 mg/kg/day; (rat, strain Fischer 344, males, in feed, site: any site (literature study), lesion: several types, types named in the paper, dosed 78 weeks, study length 104 weeks) 64.4 mg/kg/day. Also, the TD50 is 34.1 mg/kg/day (rat, strain Fischer 344, males, in feed, site: kidney + liver, lesion: adenocarcinoma, NOS + tubular-cell adenoma + tubular-cell adenocarcinoma + hepatocellular carcinoma + neoplastic nodule, dosed 78 weeks, study length 104 weeks); 441 mg/kg/day (rat, strain Fischer 344, males, in feed, site: kidney, lesion: adenocarcinoma, NOS + tubular-cell adenocarcinoma, dosed 78 weeks, study length 104 weeks); 131 mg/kg/day (rat, strain Fischer 344, males, in feed, site: kidney, lesion: adenocarcinoma, NOS + tubular-cell adenoma + tubular-cell adenocarcinoma, dosed 78 weeks, study length 104 weeks); 196 mg/kg/day (rat, strain Fischer 344, males, in feed, site: kidney, lesion: tubular-cell adenoma, dosed 78 weeks, study length 104 weeks); 39.9 mg/kg/day (rat, strain Fischer 344, males, in feed, site: liver, lesion: hepatocellular adenoma + hepatocellular carcinoma + neoplastic nodule, dosed 78 weeks, study length 104 weeks); 39.9 mg/kg/day (rat, strain Fischer 344, males, in feed, site: liver, lesion: hepatocellular carcinoma + neoplastic nodule, dosed 78 weeks, study length 104 weeks). For the same compound, the TD50 was 150 mg/kg/day (rat, strain Fischer 344, males, in feed, site: liver, lesion: hepatocellular carcinoma, dosed 78 weeks, study length 104 weeks); 136 mg/kg/day (rat, strain Fischer 344, males, in feed, site: pituitary gland, lesion: adenoma, NOS + chromophobe adenoma, dosed 78 weeks, study length 104 weeks); 283 mg/kg/day (rat, strain Fischer 344, males, in feed, site: thyroid gland, lesion: c-cell adenoma + c-cell carcinoma, dosed 78 weeks, study length 104 weeks). Also, the carcinogen call (mouse, strain B6C3F1, males, in feed, site: any site (literature study), lesion: several types, types named in the paper, dosed 70 weeks, study length 97 weeks) was “negative (inactive)”.
With `NC(=O)NC1NC(=O)NC1=O` (stereo unspecified), the carcinogen call (rat, strain Fischer 344, females, in feed, site: liver, lesion: neoplastic nodule, dosed 106 weeks, study length 128 weeks) was “negative (inactive)” and the carcinogen call (rat, strain Fischer 344, males, in feed, site: liver, lesion: neoplastic nodule, dosed 106 weeks, study length 128 weeks) was “negative (inactive)”.

(Values after PubChem BioAssay AID1745844 (Carcinogenic Potency Database (CPDB), 2022).)
